{"source": "paper PMC5613062", "about": "(Investigational New Drugs, 2017)", "key": {"[1]": {"assay": "Pharmacokinetics alone and in combination, selumetinib + erlotinib arm", "procedure": "PK parameters were derived using non-compartmental analysis. Cmax and tmax were determined by visual inspection of the plasma concentration-time profiles. AUC(0–12) was calculated by the linear trapezoidal rule. Where more than one maximum occurred, the reported value was assigned to the first occurrence."}, "[2]": {"system": "3T3", "parameters": "method as in earlier work", "details": "3T3 Neutral Red Uptake phototoxicity test; ref IB; cited from earlier work"}}, "data": [{"smiles": "Cn1cnc2c(F)c(Nc3ccc(Br)cc3Cl)c(C(=O)NOCCO)cc21", "note": "[Selumetinib]", "values": [{"measurement": "Cmax", "setting": "[1]; geometric mean (% CV), dosed alone, selumetinib 50 mg cohort (N = 14), erlotinib 100 mg QD", "value": "926.5 (69.10) ng/mL"}, {"measurement": "Cmax", "setting": "[1]; geometric mean (% CV), dosed in combination, selumetinib 50 mg BID (N = 12) + erlotinib 100 mg QD", "value": "1334 (51.16) ng/mL"}, {"measurement": "Cmax", "setting": "[1]; geometric mean, QD cohorts, in combination, selumetinib 50 mg (N = 6) + erlotinib 100 mg QD", "value": 942, "unit": "ng/mL"}, {"measurement": "tmax", "setting": "[1]; human, plasma, oral", "value": 1.25, "unit": "h"}, {"measurement": "AUC(0-t)", "setting": "[1]; human, plasma, oral, 100 mg, AUC(0–8), geometric mean, QD cohorts, dosed alone, selumetinib 100 mg cohort (N = 6), erlotinib 100 mg QD", "value": 4400, "unit": "ng·h/mL"}, {"measurement": "AUC(0-t)", "setting": "[1]; human, plasma, oral, 100 mg, AUC(0–12), geometric mean, QD cohorts, dosed alone, selumetinib 100 mg cohort (N = 6), erlotinib 100 mg QD", "value": 5000, "unit": "ng·h/mL"}, {"measurement": "Cmax", "setting": "[1]; human, plasma, oral, 100 mg, Cmax, geometric mean, QD cohorts, dosed alone, selumetinib 100 mg cohort (N = 6), erlotinib 100 mg QD", "value": 1800, "unit": "ng/mL"}, {"measurement": "AUC(0-t)", "setting": "[1]; human, plasma, oral, AUC(0–8), geometric mean (% CV), dosed alone, selumetinib 50 mg cohort (N = 14), erlotinib 100 mg QD", "value": 2280, "unit": "ng·h/mL"}, {"measurement": "AUC(0-t)", "setting": "[1]; human, plasma, oral, AUC(0–8), geometric mean (% CV), dosed alone, selumetinib 75 mg cohort (N = 6), erlotinib 100 mg QD", "value": 2860, "unit": "ng·h/mL"}, {"measurement": "AUC(0-t)", "setting": "[1]; human, plasma, oral, AUC(0–8), geometric mean (% CV), dosed in combination, selumetinib 50 mg BID (N = 12) + erlotinib 100 mg QD", "value": 3640, "unit": "ng·h/mL"}, {"measurement": "AUC(0-t)", "setting": "[1]; human, plasma, oral, AUC(0–8), geometric mean (% CV), dosed in combination, selumetinib 75 mg BID (N = 6) + erlotinib 100 mg QD", "value": 4350, "unit": "ng·h/mL"}, {"measurement": "AUC(0-t)", "setting": "[1]; human, plasma, oral, AUC(0–8), geometric mean, QD cohorts, dosed alone, selumetinib 50 mg cohort (N = 7), erlotinib 100 mg QD", "value": 1900, "unit": "ng·h/mL"}, {"measurement": "AUC(0-t)", "setting": "[1]; human, plasma, oral, AUC(0–8), geometric mean, QD cohorts, dosed alone, selumetinib 150 mg cohort (N = 13), erlotinib 100 mg QD", "value": 6780, "unit": "ng·h/mL"}, {"measurement": "AUC(0-t)", "setting": "[1]; human, plasma, oral, AUC(0–8), geometric mean, QD cohorts, in combination, selumetinib 50 mg (N = 6) + erlotinib 100 mg QD", "value": 2600, "unit": "ng·h/mL"}, {"measurement": "AUC(0-t)", "setting": "[1]; human, plasma, oral, AUC(0–8), geometric mean, QD cohorts, in combination, selumetinib 100 mg (N = 6) + erlotinib 100 mg QD", "value": 7070, "unit": "ng·h/mL"}, {"measurement": "AUC(0-t)", "setting": "[1]; human, plasma, oral, AUC(0–8), geometric mean, QD cohorts, in combination, selumetinib 150 mg (N = 12) + erlotinib 100 mg QD", "value": 9190, "unit": "ng·h/mL"}, {"measurement": "AUC(0-t)", "setting": "[1]; human, plasma, oral, AUC(0–12), geometric mean (% CV), dosed alone, selumetinib 50 mg cohort (N = 14), erlotinib 100 mg QD", "value": 2700, "unit": "ng·h/mL"}, {"measurement": "AUC(0-t)", "setting": "[1]; human, plasma, oral, AUC(0–12), geometric mean (% CV), dosed alone, selumetinib 75 mg cohort (N = 6), erlotinib 100 mg QD", "value": 3200, "unit": "ng·h/mL"}, {"measurement": "AUC(0-t)", "setting": "[1]; human, plasma, oral, AUC(0–12), geometric mean (% CV), dosed in combination, selumetinib 50 mg BID (N = 12) + erlotinib 100 mg QD", "value": 4010, "unit": "ng·h/mL"}, {"measurement": "AUC(0-t)", "setting": "[1]; human, plasma, oral, AUC(0–12), geometric mean (% CV), dosed in combination, selumetinib 75 mg BID (N = 6) + erlotinib 100 mg QD", "value": 4830, "unit": "ng·h/mL"}, {"measurement": "AUC(0-t)", "setting": "[1]; human, plasma, oral, AUC(0–12), geometric mean, QD cohorts, dosed alone, selumetinib 50 mg cohort (N = 7), erlotinib 100 mg QD", "value": 2130, "unit": "ng·h/mL"}, {"measurement": "AUC(0-t)", "setting": "[1]; human, plasma, oral, AUC(0–12), geometric mean, QD cohorts, dosed alone, selumetinib 150 mg cohort (N = 13), erlotinib 100 mg QD", "value": 7740, "unit": "ng·h/mL"}, {"measurement": "AUC(0-t)", "setting": "[1]; human, plasma, oral, AUC(0–12), geometric mean, QD cohorts, in combination, selumetinib 100 mg (N = 6) + erlotinib 100 mg QD", "value": 7760, "unit": "ng·h/mL"}, {"measurement": "AUC(0-t)", "setting": "[1]; human, plasma, oral, AUC(0–12), geometric mean, QD cohorts, in combination, selumetinib 150 mg (N = 12) + erlotinib 100 mg QD", "value": 10500, "unit": "ng·h/mL"}, {"measurement": "Cmax", "setting": "[1]; human, plasma, oral, Cmax, geometric mean (% CV), dosed alone, selumetinib 75 mg cohort (N = 6), erlotinib 100 mg QD", "value": 1050, "unit": "ng/mL"}, {"measurement": "Cmax", "setting": "[1]; human, plasma, oral, Cmax, geometric mean (% CV), dosed in combination, selumetinib 75 mg BID (N = 6) + erlotinib 100 mg QD", "value": 1660, "unit": "ng/mL"}, {"measurement": "Cmax", "setting": "[1]; human, plasma, oral, Cmax, geometric mean, QD cohorts, dosed alone, selumetinib 50 mg cohort (N = 7), erlotinib 100 mg QD", "value": 683, "unit": "ng/mL"}, {"measurement": "Cmax", "setting": "[1]; human, plasma, oral, Cmax, geometric mean, QD cohorts, dosed alone, selumetinib 150 mg cohort (N = 13), erlotinib 100 mg QD", "value": 2450, "unit": "ng/mL"}, {"measurement": "Cmax", "setting": "[1]; human, plasma, oral, Cmax, geometric mean, QD cohorts, in combination, selumetinib 100 mg (N = 6) + erlotinib 100 mg QD", "value": 2600, "unit": "ng/mL"}, {"measurement": "Cmax", "setting": "[1]; human, plasma, oral, Cmax, geometric mean, QD cohorts, in combination, selumetinib 150 mg (N = 12) + erlotinib 100 mg QD", "value": 2810, "unit": "ng/mL"}, {"measurement": "cytotoxicity in the presence of UV light", "setting": "[2]", "value": "enhanced"}]}]}
